Experiments:
[1] = test system: isolated rabbit urinary bladder; experiment: Relaxation effect on potassium-induced contraction of isolated rabbit urinary bladder; assay type: cell-based; conditions: Oryctolagus cuniculus; 50% relaxation concentration; high-K+ (30 mM) pre-contracted rabbit bladder strips; relaxation as percentage of the maximum produced by 0.1 mM papaverine; read-out: EC50 value range
Summary of the method: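 Mucosa-free longitudinal bladder strips from male NZW rabbits, held at 37 °C in Krebs solution gassed with 95% O2/5% CO2, were precontracted with 30 mM K+. Compounds were added cumulatively (10^−8–10^−4 M), with isometric relaxation expressed relative to 0.1 mM papaverine maximum. EC50 was derived and reported as rank ranges.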

[2] = test system: rhythmic bladder contractions induced by substance P; experiment: Inhibitory effect on the rhythmic bladder contractions induced by substance P in anesthetized rats; assay type: in vivo, rat; conditions: time during which frequency of rhythmic contraction was completely inhibited, 0.25 mg/kg of the compound, substance P infusion
Summary of the method: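 Value is duration (min) of complete inhibition of bladder contractions, ranked A/B/C at 20 and 10 min cut-offs. Intravenous dosing (0.5% Tween 80 saline) in female SD rats under urethane, bladder saline-filled and contractions maintained by substance P infusion, 0.33 μg/kg/min.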

melting point | EC50 [1] | SMILES | 100% inhibition time range [2]
183 to 184 °C | 1000 to 3000 nM | CCONC(=O)Cc1nc(-c2ccc(F)cc2)oc1-c1ccsc1 [Preparation Example 377] | C (A≧20>B≧10>C (minute))
208 to 210 °C | 1000 to 3000 nM | CS(=O)(=O)Cc1nc(-c2ccc(F)cc2)oc1-c1ccsc1 [Preparation Example 623] | C (A≧20>B≧10>C (minute))
174 to 176 °C | 1000 to 3000 nM | CCc1nc(-c2ccc(Cl)cc2)[nH]c1-c1ccccc1 [Preparation example 59] | B (A≧20>B≧10>C (minute))
169 to 170 °C | 1000 to 3000 nM | CCc1nc(-c2ccc(F)cc2)[nH]c1-c1ccccc1 [Preparation example 61] | A (A≧20>B≧10>C (minute))
245 to 248 °C (dec.) | ≤ 500 nM | COCc1[nH]c(-c2ccc(Cl)s2)nc1-c1cccnc1.Cl.Cl [Preparation example 120, 2-(5-chlorothiophen-2-yl)-5-methoxymethyl-4-(3-pyridyl) imidazole dihydrochloride] | C (A≧20>B≧10>C (minute))

— patent US7759373B2, “Large conductance calcium-activated K channel opener” (Mitsubishi Tanabe Pharma Corporation, priority 2001, dated 2010)
